In publication PMC11047392, “A Physiological Approach to Explore How Thioredoxin–Glutathione Reductase (TGR) and Peroxiredoxin (Prx) Eliminate H2O2 in Cysticerci of Taenia” (Antioxidants, 2024):

Biological target: T1, TsPrx1 (Taenia solium, UniProt Q2TP88)
T1 construct: recombinant, pET-23a(+) NdeI/XhoI, E. coli BL21 Codon Plus, His tag (printed as amino terminal), 195 residues, ~22 kDa
Assay: NADPH oxidation at […] nm, coupled assay with TsTrx and TcTGR
Format: biochemical
Conditions: 150 μM NADPH, 60 μM TsTrx, 11.2 nM TcTGR, 1.25 μM TsPrx1, pH 7.8, 25 °C

T1 sequence (Q2TP88 entry or part of it): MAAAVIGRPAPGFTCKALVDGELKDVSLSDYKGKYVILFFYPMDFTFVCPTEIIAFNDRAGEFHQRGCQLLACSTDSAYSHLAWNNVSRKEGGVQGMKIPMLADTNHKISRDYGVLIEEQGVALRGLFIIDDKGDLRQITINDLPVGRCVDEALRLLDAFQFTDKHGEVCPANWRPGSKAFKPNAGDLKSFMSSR

CC(C)(C)OO [t-butyl hydroperoxide]
Km: 18.1 µM
